Data: patent US11319289B2, “5-hydroxy pyridine-based compound for use as P2X1 and P2X3 receptor antagonist and pharmaceutical composition comprising same” (GWANGJU INSTITUTE OF SCIENCE AND TECHNOLOGY, priority 2017, dated 2022)
“Also recorded” adds a separate entry of the source.

Experiments:
[1] = test system: neuropathic pain (NeP) animal models; assay: Efficacy in neuropathic pain (NeP) animal models, model not specified; format: in vivo, rat
Experimental: (§1) 3-1. Evaluation of In Vivo Efficacy
(§2) The antiallodynic effects (mechanical allodynia) were evaluated using rats according to a previously reported protocol. In order to evaluate the withdrawal threshold, rats (naive, SNL and CIPN) were placed on a plastic mesh floor of individual plastic cages. The rats were allowed to acclimate to the environment for 30 minutes and examined after intrathecal or intravenous administration to the caudal vein. The control group received the same volume of vehicle (intrathecal administration of saline or DMSO, intravenous administration of DMSO:PEG:PBS=1:6:3 v/v %) as the experimental groups. Evaluation of the mechanical withdrawal threshold was measured in responses to the application of calibrated von Frey filaments (Stoelting, Wood Dale, Ill., USA) to the hind paw of the rats through the holes on the mesh floor underneath the cage using the ‘up and down method’. A series of eight von Frey filaments (0.4, 0.7, 1.2, 2.0, 3.6, 5.5, 8.5, and 15 g) was applied perpendicular to the sole of the hind paw for 5 seconds while the head was bent. Active withdrawal or flinching of the paw was considered as a positive reaction. The absence of response in the rats, when a pressure was applied to 15 g von Frey filament, was used as a cut-off value. Only rats with definite allodynia (i.e., mechanical withdrawal threshold: less than 4 g after SNL or less than 5 g after CIPN) were tested. The rats after termination of the experiments were euthanized through an overdose of sevoflurane. The withdrawal threshold data for the von Frey filament test was calculated as % MPE (maximum possible effect) based on the following Calculation Equation: % MPE=[(Post-drug threshold−Post-injured baseline threshold)/(Cutoff threshold−post-injured baseline threshold)×100]. Dose-response data were analyzed using Scheffe's post hoc test and one-way analysis of variance (ANOVA).

[2] = biological target: T1, mouse P2X1 receptor (mP2X1) (Mus musculus, UniProt P51576); assay: Two-electrode voltage clamp assay, recombinant mP2X1 receptor in Xenopus oocytes; format: cell-based; conditions: 10 μM compound, 2 μM ATP, mean±SEM n≥3 (footnote c), read-out: mP2X1 % inhibitory effect at 10 μM
T1 construct: expressed in transfected cells; host or cells: Xenopus oocytes (cRNA microinjection)
T1 sequence (P51576 1-399): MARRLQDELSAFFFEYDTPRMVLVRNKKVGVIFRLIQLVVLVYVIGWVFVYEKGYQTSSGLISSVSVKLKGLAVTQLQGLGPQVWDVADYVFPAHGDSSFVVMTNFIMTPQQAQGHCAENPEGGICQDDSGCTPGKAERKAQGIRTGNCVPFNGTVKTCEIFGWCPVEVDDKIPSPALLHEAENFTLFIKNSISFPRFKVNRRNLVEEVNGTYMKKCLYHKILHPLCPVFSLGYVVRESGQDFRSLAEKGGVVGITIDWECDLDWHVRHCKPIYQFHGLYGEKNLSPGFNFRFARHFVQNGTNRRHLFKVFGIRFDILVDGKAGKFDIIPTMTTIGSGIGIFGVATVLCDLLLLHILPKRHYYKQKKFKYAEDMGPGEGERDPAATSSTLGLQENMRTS
Experimental: 1-1. Two-Electrode Voltage Clamp Assay for Recombinant mP2X1 and hP2X3 Receptors
Xenopus oocytes were isolated and incubated with 270 U/mg of collagenase at 23 to 24° C. for 1.5 hours. Defolliculated oocytes were kept in Barth's solution at 18° C. After 1 day, the defolliculated oocytes were each microinjected cytosolically with mP2X1 and human P2X3 receptor cRNA ([…], 1 μg/mL), incubated for 24 hours at 18° C. in Barth's solution. The cRNA-injected oocytes were kept for 12 days at 4° C. ATP-activated membrane currents (Vh=−70 mV) were recorded from the cRNA-injected oocytes using the two-electrode voltage clamp technique (Axoclamp 2B amplifier). Voltage recording ([…] tip resistance) and current-recording microelectrodes (5 MΩ tip resistance) were filled with 3.0 M KCl. Oocytes were placed in an electrophysiological chamber continuously superfused with Ringer's solution (5 mL/min, at 18° C.) containing 110 mM NaCl, 2.5 mM KCl, 5 mM HEPES and 1.8 mM BaCl2, with pH adjusted to 7.5. To induce an evoked current, 2 μM ATP was superfused for 60 to 120 seconds and then washed for 20 min. For data analysis, the ATP-evoked current was normalized at pH 7.5. The compounds were introduced to the fixed oocytes 20 minutes prior to ATP exposure in the electrophysiological chamber. IC50 values (the concentration of the compound required to inhibit the ATP response by 50%) were determined by Hill plots designed using the Chemical Formula: log(I/Imax−1), where I is the current evoked by ATP in the presence of an antagonist. Data are presented as mean±SEM (n≥3) from different batches of oocytes.
In order to investigate the structure-activity relationship (SAR) of the compounds synthesized in the present invention, the antagonistic activity was evaluated by a two-electrode voltage clamp (TEVC) assay in Xenopus oocytes expressing the recombinant mP2X1 or hP2X3, respectively. The hP2X7R antagonistic activity was assessed using an ethidium ion accumulation assay in human HEK293 cells stably expressing the recombinant human P2X7R.

[3] = test system: SNL rats (mechanical allodynia); assay: Antiallodynic effect (von Frey) in spinal nerve ligation (SNL) rats; format: in vivo, rat
Experimental: as §1, §2

[4] = Metabolic stability in microsomes, mouse; format: in vitro ADME; conditions: 30 min
[5] = Metabolic stability in microsomes, rat; format: in vitro ADME; conditions: for Metabolic stability, microsomes, Rat: 30 min
Experimental: Metabolic stability of the compounds was evaluated in rat liver microsomes (RLM). Microsomes (0.5 mg/ml) and test compound (1 μM) in 100 mM potassium phosphate buffer (pH 7.4) were preincubated by shaking at 37° C. for 5 min (100 rpm). Metabolic reactions were initiated by adding an NADPH production system (60 mM potassium phosphate buffer at pH 7.4, 1.3 mM NADP, 3.3 mM glucose-6-phosphate, 0.3 μL glucose-6-phosphate dehydrogenase (0.4 U/mL), and 3.3 mM magnesium chloride) and incubating at 37° C. 100 μL aliquots were recovered at 0, 10, 20, 30 and 60 minutes, and the reaction was terminated by the addition of two volumes of ice-cold acetonitrile (ACN). After mixing by vortex and centrifugation (14000 rpm) for 15 minutes at 4° C., the supernatant was transferred to liquid chromatography vials and analyzed by an LC-MS/MS system.

inhibition at 10 µM [2]	Metabolic stability, microsomes, Mouse [4]	Metabolic stability, microsomes, Rat [5]	metabolic stability ([5]; after 30 minutes, species not given)	SMILES	in vivo efficacy in early animal experiments ([1]; early animal experiments)	ED50 ([3]; Rattus norvegicus, antiallodynic effect, intravenous administration)	antiallodynic efficacy, MPE % ([3]; 1 μg, intrathecal administration)	paw withdrawal threshold ([3]; intrathecal administration, von Frey)	antiallodynic effect upon intraperitoneal and intravenous administration ([1]; NeP animal models, i.p. and i.v.)	antiallodynic effect upon intramedullary administration ([1]; NeP rats)
42.8 ± 7.4%				CCCc1nc(CCc2ccc(OC)cc2)c(C(=O)O)c(C(=O)O)c1O [Compound 13d, 5-Hydroxy-2-(4-methoxyphenethyl)-6-propylpyridine-3,4-dicarboxylic acid]	weak in vivo efficacy					
	35 % remaining after 30 min	33 % remaining after 30 min		CCCc1nc(Cc2cccc(Oc3ccccc3)c2)c(C)c(C(=O)OC)c1O [Compound 28, Methyl 3-hydroxy-5-methyl-6-(3-phenoxybenzyl)-2-propylisonicotinate]		2.62 mg/kg				
23.3 ± 4.8%	2 % remaining after 30 min	0 % remaining after 30 min	< 5%	CCCc1nc(Cc2cccc(Oc3ccccc3)c2)c(C)c(C(=O)O)c1O [Compound 29, 3-Hydroxy-5-methyl-6-(3-phenoxybenzyl)-2-propylisonicotinic acid]			58±19%	increase in paw withdrawal threshold	no antiallodynic effect; also recorded: no pharmacological activity was observed; also recorded: did not provide an antiallodynic effect	potent antiallodynic effect
